The text below walks through data of PubChem BioAssay (NCI).

Test systems include CCRF-CEM leukemia; HCC-2998 colon; HCT-116 colon; HL-60(TB) leukemia; KM12 colon; MALME-3M melanoma; MDA-MB-435; NCI-H226 lung; RPMI-8226 leukemia; U251 CNS.
Test in all cases: DTP human tumour cell line panel, 48 h

SMILES strings stand for the structures. “And” between values parts separate entries of the source, which are not always exact repeats. Identical values can stand only once.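 Method: 48-hour compound exposure of cells in 96-well plates, five concentrations, linear interpolation of endpoints. At the GI50, growth is halved. TGI: concentration producing complete growth inhibition.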 Where only a bound is given, the exact number is not on record here.

Consider `Clc1ccc(Nc2nnc(CNc3ccc(-c4nnc(Nc5ccc(Cl)cc5)o4)cc3)o2)cc1`, for which the concentration for total growth inhibition (TGI) in the assay with CCRF-CEM leukemia was more than 100 µM; in the assay with HCC-2998 colon, 27.8 µM; in the assay with HCT-116 colon it was 33.7 µM; in the assay on HL-60(TB) leukemia, more than 100 µM; with KM12 colon it was 23.3 µM; in the assay with MALME-3M melanoma, 28.5 µM. The TGI is 30.6 µM in the assay with MDA-MB-435, 47.3 µM with NCI-H226 lung, more than 100 µM in the assay with RPMI-8226 leukemia and 23.2 µM in the assay on U251 CNS.

Turning to `O=C(NCCCc1cn[nH]c(=O)n1)c1cccc2nc3ccccc3nc12`, the TGI in the assay with CCRF-CEM leukemia, in the assay on HCC-2998 colon, in the assay on HCT-116 colon, in the assay on HL-60(TB) leukemia, with KM12 colon and with MALME-3M melanoma was more than 100 µM in each case. In addition, the TGI in the assay on MDA-MB-435, in the assay on NCI-H226 lung, in the assay with RPMI-8226 leukemia and in the assay on U251 CNS was more than 100 µM each time.

Take `Cc1cc2c(cc1-c1cc3c(cc1C)C(C(C)C)=C(O)C(=O)/C3=C\Nc1ccccn1)/C(=C/Nc1ccccn1)C(=O)C(O)=C2C(C)C`: the TGI in the assay on CCRF-CEM leukemia is more than 100 µM; in the assay with HCC-2998 colon it was 60.2 µM; with HCT-116 colon it was more than 100 µM; in the assay with HL-60(TB) leukemia it was 99.2 µM; in the assay on KM12 colon, 73.6 µM; in the assay on MALME-3M melanoma it was 67.6 µM. Besides, the TGI in the assay with MDA-MB-435 is more than 100 µM; with NCI-H226 lung it was 77.8 µM; with RPMI-8226 leukemia, more than 100 µM; with U251 CNS, more than 100 µM.

`Cc1cc2nc(CC(C(F)(F)F)C(F)(F)F)oc2cc1C`: the TGI was more than 100 µM in the assay on CCRF-CEM leukemia; 11.8 µM in the assay on HCC-2998 colon; 2.64 µM with HCT-116 colon; 12.5 µM in the assay with HL-60(TB) leukemia; 10.3 µM with KM12 colon; 9.32 µM in the assay with MALME-3M melanoma. Besides, the TGI with MDA-MB-435 worked out at 5.64 µM; with NCI-H226 lung, 4.81 µM; in the assay with RPMI-8226 leukemia, 1.61 µM; in the assay with U251 CNS, 9.41 µM.

`CC(=O)N1CCN(CCCCN2c3ccccc3Sc3cc(N=[N+]=[N-])ccc32)CC1`: the TGI in the assay with CCRF-CEM leukemia came to 33.2 µM; with HCC-2998 colon, 28.5 µM; in the assay with HCT-116 colon it was 26.7 µM; in the assay on HL-60(TB) leukemia, 27.3 µM; in the assay with KM12 colon, 28.2 µM; in the assay on MALME-3M melanoma, 33 µM. For the same molecule, the TGI in the assay on MDA-MB-435 came to 29 µM; with NCI-H226 lung it was 35.5 µM; in the assay with RPMI-8226 leukemia, 29.1 µM; with U251 CNS, 27.6 µM.

As to `CC(=O)CC12NC(=O)N(C)N=C1N(C)C(=O)N(C)C2=O` (configuration not stated), the TGI in the assay with CCRF-CEM leukemia was more than 100 µM; in the assay with HCC-2998 colon, more than 100 µM; with HCT-116 colon, more than 100 µM; with HL-60(TB) leukemia, more than 100 µM; in the assay on KM12 colon it was more than 100 µM; in the assay on MALME-3M melanoma, 26.5 µM. Besides, the TGI in the assay with MDA-MB-435 is 31 µM; in the assay with NCI-H226 lung, more than 100 µM; in the assay on RPMI-8226 leukemia, more than 100 µM; in the assay with U251 CNS, more than 100 µM.

For `O=C(CBr)NCCc1c[nH]c2ccccc12`, the TGI worked out at 0.552 µM in the assay on CCRF-CEM leukemia; 24.9 µM in the assay on HCC-2998 colon; 3.15 µM in the assay on HCT-116 colon; 3.69 µM in the assay on HL-60(TB) leukemia; 3.85 µM in the assay on KM12 colon; 9.41 µM in the assay with MALME-3M melanoma. The TGI in the assay with MDA-MB-435 turned out to be 3.34 µM; with NCI-H226 lung, 2.64 µM; in the assay on RPMI-8226 leukemia, 4.31 µM; in the assay on U251 CNS, 3.53 µM.

For the molecule `O=C1CCc2ccccc2O1`, the concentration for total growth inhibition (TGI) with CCRF-CEM leukemia, with HCC-2998 colon, in the assay with HCT-116 colon, with HL-60(TB) leukemia, in the assay on KM12 colon and in the assay with MALME-3M melanoma was more than 100 µM in each case. In addition, the TGI with MDA-MB-435, with NCI-H226 lung, in the assay on RPMI-8226 leukemia and in the assay with U251 CNS was more than 100 µM each time.

Consider `c1ccc(Sc2nc(Sc3ccccc3)nc(Sc3ccccc3)n2)cc1`, for which the TGI in the assay on CCRF-CEM leukemia was more than 100 µM; with HCC-2998 colon, 37.8 µM; in the assay with HCT-116 colon it was more than 100 µM; with HL-60(TB) leukemia, more than 100 µM; in the assay with KM12 colon, 29.4 µM; in the assay with MALME-3M melanoma, more than 100 µM. Besides, the TGI is more than 100 µM in the assay on MDA-MB-435, 77.9 µM in the assay with NCI-H226 lung, more than 100 µM in the assay with RPMI-8226 leukemia and more than 100 µM in the assay on U251 CNS.

Consider `CC1(C)OC2[C@@H](CO[C@@]3([C@H]4OC(C)(C)O[C@@H]4CO)OC(C)(C)O[C@@H]23)O1` (some centres not stated), for which the TGI in the assay with CCRF-CEM leukemia, in the assay on HCC-2998 colon, with HCT-116 colon, in the assay on HL-60(TB) leukemia, in the assay on KM12 colon and with MALME-3M melanoma was more than 100 µM each time. Also, the total growth inhibition concentration (TGI) with MDA-MB-435, with NCI-H226 lung, with RPMI-8226 leukemia and in the assay with U251 CNS was more than 100 µM each time.

`CCOC(=O)C(NC(=O)c1ccccc1)(Nc1ccc(S(=O)(=O)Nc2ccc(OC)nn2)cc1)C(F)(F)F` (configuration not stated): the TGI in the assay with CCRF-CEM leukemia, in the assay with HCC-2998 colon, with HCT-116 colon, in the assay on HL-60(TB) leukemia, with KM12 colon and in the assay on MALME-3M melanoma was more than 100 µM throughout. For the same molecule, the concentration for total growth inhibition (TGI) in the assay on MDA-MB-435, in the assay with NCI-H226 lung, in the assay on RPMI-8226 leukemia and with U251 CNS was more than 100 µM in each case.

Turning to `NC(CS)C(=O)NCCNc1ccc(NCCNC(=O)C(N)CS)c2c1C(=O)c1c(O)ccc(O)c1C2=O` (configuration not stated), the TGI is 0.517 µM in the assay with CCRF-CEM leukemia; 1.13 µM and 0.822 µM with HCC-2998 colon; 0.261 µM and 0.154 µM in the assay with HCT-116 colon; 0.0414 µM with HL-60(TB) leukemia; 0.874 µM and 0.264 µM in the assay on KM12 colon; 1.27 µM and 1.24 µM with MALME-3M melanoma. In addition, the TGI with MDA-MB-435 is 1.86 µM; with NCI-H226 lung, 0.0616 µM and 0.0476 µM; in the assay on RPMI-8226 leukemia, 0.744 µM and 0.0804 µM; with U251 CNS, 0.136 µM and 0.117 µM. Moreover, the GI50 is 0.196 µM with HCC-2998 colon; 0.0176 µM in the assay on HCT-116 colon; 0.0393 µM in the assay on KM12 colon; 0.0818 µM in the assay with MALME-3M melanoma; 0.0152 µM in the assay on RPMI-8226 leukemia.

For the molecule `CCOP(=O)(OCC)C(C)(CC)/N=C(\N)NC#N` (configuration not stated), the TGI in the assay on CCRF-CEM leukemia, in the assay with HCC-2998 colon, in the assay with HCT-116 colon, in the assay on HL-60(TB) leukemia, in the assay with KM12 colon and in the assay on MALME-3M melanoma was more than 100 µM in each case. The TGI in the assay with MDA-MB-435, with NCI-H226 lung, in the assay with RPMI-8226 leukemia and with U251 CNS was more than 100 µM throughout.

Consider `O=C1C(=O)N(C23CC4CC(CC(C4)C2)C3)C(=S)N1c1ccccc1`, for which the TGI in the assay on CCRF-CEM leukemia, with HCC-2998 colon, in the assay with HCT-116 colon, in the assay on HL-60(TB) leukemia, in the assay with KM12 colon and in the assay on MALME-3M melanoma was more than 100 µM in each case. Further, the concentration for total growth inhibition (TGI) in the assay with MDA-MB-435, in the assay with NCI-H226 lung, with RPMI-8226 leukemia and in the assay with U251 CNS was more than 100 µM each time.

For the molecule `COc1cc(/C=C/c2ccc(S(N)(=O)=O)cc2)cc(OC)c1`, the GI50 is 19.9 µM in the assay on CCRF-CEM leukemia; 18.6 µM with HL-60(TB) leukemia; 20.8 µM in the assay on KM12 colon; 18.7 µM in the assay on MDA-MB-435; 12.3 µM in the assay on NCI-H226 lung; 14.3 µM in the assay on RPMI-8226 leukemia. The GI50 with U251 CNS is 17.1 µM. Moreover, the TGI was 52.3 µM with CCRF-CEM leukemia; 38.1 µM in the assay on HCC-2998 colon; 27.5 µM in the assay with HCT-116 colon; 42.6 µM in the assay on HL-60(TB) leukemia; 57.6 µM with KM12 colon; 41.6 µM in the assay with MALME-3M melanoma. Besides, the TGI with MDA-MB-435 was 40 µM; in the assay on NCI-H226 lung it was 38.1 µM; in the assay on RPMI-8226 leukemia, 31.5 µM; in the assay with U251 CNS, more than 100 µM.

With `N#CCN1CCCN(CC#N)CCN(CC#N)CCCN(CC#N)CC1`, the concentration for total growth inhibition (TGI) in the assay with CCRF-CEM leukemia, in the assay with HCC-2998 colon, in the assay with HCT-116 colon, with HL-60(TB) leukemia, in the assay on KM12 colon and with MALME-3M melanoma was more than 100 µM throughout. Further, the TGI in the assay on MDA-MB-435, in the assay with NCI-H226 lung, in the assay on RPMI-8226 leukemia and with U251 CNS was more than 100 µM in each case.

Take `COc1cc(C2c3cc4c(cc3OC(NNc3ccccc3)C2C)OCO4)cc(OC)c1O` (configuration not stated): the concentration for total growth inhibition (TGI) with CCRF-CEM leukemia was 21.3 µM; in the assay with HCC-2998 colon, 2.87 µM; in the assay on HCT-116 colon, 13.5 µM; with HL-60(TB) leukemia it was 5.18 µM; in the assay with KM12 colon it was 12 µM; in the assay on MALME-3M melanoma it was 11 µM. Further, the total growth inhibition concentration (TGI) with MDA-MB-435 was found to be 3.96 µM; in the assay with NCI-H226 lung, 14.6 µM; with RPMI-8226 leukemia, 9.78 µM; with U251 CNS, 16.3 µM.

For the molecule `CCOC(=O)[C@H](CO)Nc1c(O)c2c(c(O)c1Cl)C(=O)C=CC2=O`, the TGI in the assay with CCRF-CEM leukemia, with HCC-2998 colon, with HCT-116 colon, in the assay on HL-60(TB) leukemia, with KM12 colon and in the assay with MALME-3M melanoma was more than 10 µM each time. Moreover, the TGI with MDA-MB-435, with NCI-H226 lung, with RPMI-8226 leukemia and in the assay with U251 CNS was more than 10 µM in each case.

With `COc1cc(/C=C/C2=NN(c3cccc(S(=O)(=O)O)c3)C3(C2)SCC(=O)N3c2nc3ccccc3s2)cc(OC)c1OC` (configuration not stated), the TGI in the assay on CCRF-CEM leukemia was 75.1 µM; with HCC-2998 colon, more than 100 µM; in the assay on HCT-116 colon, more than 100 µM; with HL-60(TB) leukemia, more than 100 µM; with KM12 colon, more than 100 µM; in the assay with MALME-3M melanoma, more than 100 µM. The TGI is 50.2 µM in the assay with MDA-MB-435, more than 100 µM in the assay on NCI-H226 lung, 48.9 µM with RPMI-8226 leukemia and more than 100 µM in the assay on U251 CNS.

As usually defined, the TGI is the concentration at which net growth stops. A word on the GI50: it is the concentration that inhibits growth by half.
